{"source": "patent US4241077A", "about": "“β-Oxo-3-thiophenepropionitrile and β-amino-2-(3)-thiopheneacrylonitriles” (American Cyanamid Company, priority 1979, dated 1980)", "key": {"[1]": {"system": "adjuvant induced arthritis (Freund's adjuvant) in rats", "test": "Adjuvant induced arthritis in rats (oral, once daily days 0 through 13 post challenge)", "format": "in vivo, Royal Hart, Wistar strain rats", "description": "Groups of three Royal Hart, Wistar strain rats weighing 200±10 grams each were injected intradermally in the right hind paw with Freund's adjuvant (dried human tubercle bacilli in a mineral oil vehicle) at a dose of 2 mg./kg. of body weight. Test compounds were administered orally in a 1.5% starch vehicle at various doses once daily on days 0 through 13 post challenge. Control rats were treated in a similar manner, but given only starch vehicle. On the 14th and 21st day post challenge the diameter of the injected paw (primary lesion) was measured by micrometer caliper. The volume of inflamed paws were estimated from these measurements and the results are expressed as percent inhibition of swelling as compared to controls. At the same time, the other inflamed sites, such as ears, paws and tail (secondary lesions) were observed and each rat was graded as to degree of inflammation and swelling present. The grading is based on a scale of 0 to 24, where 0 represents a complete absence of induced arthritic nodules and 24 represents the maximum degree of inflammation. The mean grade for each treated group is calculated and the effects of each compound are expressed as percent inhibition of the control grade. Table I below records the results of tests conducted with the compounds of this invention and known anti-inflammatory agents. The compounds of this invention appear to suppress the progression of the arthritis and associated joint deterioration."}, "[2]": {"system": "adjuvant induced experimental polyarthritis", "settings": "result in words; literature; cited from earlier work"}}}
{"smiles": "N#CCC(=O)c1ccsc1", "note": "[β-Oxo-3-thiophenepropionitrile, β-oxo-3-thiophenepropionitrile]", "values": [{"measurement": "Dead/Treated at 21 Days", "setting": "[1]; oral 50 mg./kg. of body weight", "value": "1/18"}, {"measurement": "Inhibition of Swelling (primary lesion)", "setting": "[1]; oral 50 mg./kg., Day 14", "value": 61, "unit": "%"}, {"measurement": "Mean Weight Gain", "setting": "[1]; oral 50 mg./kg., Day 14", "value": 53, "unit": "grams"}, {"measurement": "Inhibition of Swelling (primary lesion)", "setting": "[1]; oral 50 mg./kg., Day 21", "value": 26, "unit": "%"}, {"measurement": "Mean Weight Gain", "setting": "[1]; oral 50 mg./kg., Day 21", "value": 50, "unit": "grams"}]}
{"smiles": "CCCCC1C(=O)N(c2ccccc2)N(c2ccccc2)C1=O", "note": "[Phenylbutazone, reference compound]", "values": [{"measurement": "Inhibition of Swelling (primary lesion)", "setting": "[1]; oral 18.8 mg./kg., Day 14", "value": 31, "unit": "%"}, {"measurement": "Inhibition of Swelling (primary lesion)", "setting": "[1]; oral 18.8 mg./kg., Day 21", "value": 7, "unit": "%"}, {"measurement": "Inhibition of Swelling (primary lesion)", "setting": "[1]; oral 37.5 mg./kg., Day 14", "value": 56, "unit": "%"}, {"measurement": "Inhibition of Swelling (primary lesion)", "setting": "[1]; oral 37.5 mg./kg., Day 21", "value": 14, "unit": "%"}, {"measurement": "Inhibition of Swelling (primary lesion)", "setting": "[1]; oral 75 mg./kg., Day 14", "value": 62, "unit": "%"}, {"measurement": "Inhibition of Swelling (primary lesion)", "setting": "[1]; oral 75 mg./kg., Day 21", "value": 28, "unit": "%"}, {"measurement": "Inhibition of Swelling (primary lesion)", "setting": "[1]; oral 150 mg./kg., Day 14", "value": 75, "unit": "%"}, {"measurement": "Inhibition of Swelling (primary lesion)", "setting": "[1]; oral 150 mg./kg., Day 21", "value": 44, "unit": "%"}]}
{"smiles": "N#CC=C(N)c1ccsc1", "note": "[β-Amino-3-thiopheneacrylonitrile, β-amino-3-thiopheneacrylonitrile]", "values": [{"measurement": "Dead/Treated at 21 Days", "setting": "[1]; oral 50 mg./kg. of body weight", "value": "2/18"}, {"measurement": "Inhibition of Swelling (primary lesion)", "setting": "[1]; oral 50 mg./kg., Day 14", "value": 52, "unit": "%"}, {"measurement": "Mean Weight Gain", "setting": "[1]; oral 50 mg./kg., Day 14", "value": 47, "unit": "grams"}, {"measurement": "Inhibition of Swelling (primary lesion)", "setting": "[1]; oral 50 mg./kg., Day 21", "value": 41, "unit": "%"}, {"measurement": "Mean Weight Gain", "setting": "[1]; oral 50 mg./kg., Day 21", "value": 54, "unit": "grams"}]}
{"smiles": "COc1ccc2c(c1)c(CC(=O)O)c(C)n2C(=O)c1ccc(Cl)cc1", "note": "[Indomethocin, reference compound]", "values": [{"measurement": "arthritic paw swelling; joint and bone deterioration", "setting": "[2]", "value": "prevent joint and bone deterioration"}, {"measurement": "Inhibition of Swelling (primary lesion)", "setting": "[1]; oral 0.25 mg./kg., Day 14", "value": 30, "unit": "%"}, {"measurement": "Inhibition of Swelling (primary lesion)", "setting": "[1]; oral 0.25 mg./kg., Day 21", "value": 4, "unit": "%"}, {"measurement": "Inhibition of Swelling (primary lesion)", "setting": "[1]; oral 0.5 mg./kg., Day 14", "value": 40, "unit": "%"}, {"measurement": "Inhibition of Swelling (primary lesion)", "setting": "[1]; oral 0.5 mg./kg., Day 21", "value": 20, "unit": "%"}, {"measurement": "Inhibition of Swelling (primary lesion)", "setting": "[1]; oral 1 mg./kg., Day 14", "value": 46, "unit": "%"}, {"measurement": "Inhibition of Swelling (primary lesion)", "setting": "[1]; oral 1 mg./kg., Day 21", "value": 19, "unit": "%"}, {"measurement": "Inhibition of Swelling (primary lesion)", "setting": "[1]; oral 2 mg./kg., Day 14", "value": 51, "unit": "%"}, {"measurement": "Inhibition of Swelling (primary lesion)", "setting": "[1]; oral 2 mg./kg., Day 21", "value": 24, "unit": "%"}]}
{"smiles": "CC(=O)Oc1ccccc1C(=O)O", "note": "[Aspirin, reference compound]", "values": [{"measurement": "Inhibition of Swelling (primary lesion)", "setting": "[1]; oral 50 mg./kg., Day 14", "value": 23, "unit": "%"}, {"measurement": "Inhibition of Swelling (primary lesion)", "setting": "[1]; oral 50 mg./kg., Day 21", "value": 3, "unit": "%"}, {"measurement": "Inhibition of Swelling (primary lesion)", "setting": "[1]; oral 100 mg./kg., Day 14", "value": 36, "unit": "%"}, {"measurement": "Inhibition of Swelling (primary lesion)", "setting": "[1]; oral 100 mg./kg., Day 21", "value": 13, "unit": "%"}, {"measurement": "Inhibition of Swelling (primary lesion)", "setting": "[1]; oral 200 mg./kg., Day 14", "value": 48, "unit": "%"}, {"measurement": "Inhibition of Swelling (primary lesion)", "setting": "[1]; oral 200 mg./kg., Day 21", "value": 27, "unit": "%"}, {"measurement": "Inhibition of Swelling (primary lesion)", "setting": "[1]; oral 400 mg./kg., Day 14", "value": 73, "unit": "%"}, {"measurement": "Inhibition of Swelling (primary lesion)", "setting": "[1]; oral 400 mg./kg., Day 21", "value": 48, "unit": "%"}]}
{"smiles": "N#CC=C(N)c1cccs1", "note": "[β-Amino-2-thiopheneacrylonitrile, β-amino-2-thiopheneacrylonitrile]", "values": [{"measurement": "Dead/Treated at 21 Days", "setting": "[1]; oral 50 mg./kg. of body weight", "value": "1/33"}, {"measurement": "% Inhibition of Control Grade (secondary lesion)", "setting": "[1]; oral 50 mg./kg., Day 14", "value": 21, "unit": "%"}, {"measurement": "Inhibition of Swelling (primary lesion)", "setting": "[1]; oral 50 mg./kg., Day 14", "value": 44, "unit": "%"}, {"measurement": "Mean Weight Gain", "setting": "[1]; oral 50 mg./kg., Day 14", "value": 54, "unit": "grams"}, {"measurement": "% Inhibition of Control Grade (secondary lesion)", "setting": "[1]; oral 50 mg./kg., Day 21", "value": 6, "unit": "%"}, {"measurement": "Inhibition of Swelling (primary lesion)", "setting": "[1]; oral 50 mg./kg., Day 21", "value": 23, "unit": "%"}, {"measurement": "Mean Weight Gain", "setting": "[1]; oral 50 mg./kg., Day 21", "value": 50, "unit": "grams"}, {"measurement": "Dead/Treated at 21 Days", "setting": "[1]; oral 100 mg./kg. of body weight", "value": "2/18"}, {"measurement": "% Inhibition of Control Grade (secondary lesion)", "setting": "[1]; oral 100 mg./kg., Day 14", "value": 25, "unit": "%"}, {"measurement": "Inhibition of Swelling (primary lesion)", "setting": "[1]; oral 100 mg./kg., Day 14", "value": 49, "unit": "%"}, {"measurement": "Mean Weight Gain", "setting": "[1]; oral 100 mg./kg., Day 14", "value": 45, "unit": "grams"}, {"measurement": "% Inhibition of Control Grade (secondary lesion)", "setting": "[1]; oral 100 mg./kg., Day 21", "value": 16, "unit": "%"}, {"measurement": "Inhibition of Swelling (primary lesion)", "setting": "[1]; oral 100 mg./kg., Day 21", "value": 27, "unit": "%"}, {"measurement": "Mean Weight Gain", "setting": "[1]; oral 100 mg./kg., Day 21", "value": 51, "unit": "grams"}, {"measurement": "Dead/Treated at 21 Days", "setting": "[1]; oral 200 mg./kg. of body weight", "value": "6/18"}, {"measurement": "% Inhibition of Control Grade (secondary lesion)", "setting": "[1]; oral 200 mg./kg., Day 14", "value": 80, "unit": "%"}, {"measurement": "Inhibition of Swelling (primary lesion)", "setting": "[1]; oral 200 mg./kg., Day 14", "value": 70, "unit": "%"}, {"measurement": "Mean Weight Gain", "setting": "[1]; oral 200 mg./kg., Day 14", "value": 36, "unit": "grams"}, {"measurement": "% Inhibition of Control Grade (secondary lesion)", "setting": "[1]; oral 200 mg./kg., Day 21", "value": 57, "unit": "%"}, {"measurement": "Inhibition of Swelling (primary lesion)", "setting": "[1]; oral 200 mg./kg., Day 21", "value": 61, "unit": "%"}, {"measurement": "Mean Weight Gain", "setting": "[1]; oral 200 mg./kg., Day 21", "value": 53, "unit": "grams"}]}
